Reference: PubChem BioAssay (NCI)
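The compound was tested at five concentrations on cells cultured in 96-well plates, with a 48-hour exposure period. TGI marks complete inhibition of growth.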

The molecules below were run on SF-268 CNS (assay: DTP human tumour cell line panel, 48 h).

| Structure (SMILES) | TGI |
| --- | --- |
| CC1=CC(=O)NCCN1C | > 100 µM |

The molecules below were run on CAKI-1 renal (assay: DTP human tumour cell line panel, 48 h).

| Structure (SMILES) | TGI |
| --- | --- |
| Cc1cccc(N2C(=O)C(Cl)=C(Cl)C2=O)c1 | > 56.9 µM |
| CCC(C)(O)c1cn(-c2cccc(S(=O)(=O)O)c2)nn1 (stereo not given) | > 100 µM |
| COc1ccc(OC)c(/C=C/NC=O)c1 | > 100 µM |
| CC(=O)c1cccc2c1CC1(C2)Cc2ccc3c(c2C1=O)CCC3 (stereo not given) | > 100 µM |
| COc1cc(Cc2cc(OC)c(OC)c(OC)c2)ccc1O | > 100 µM |
| Nc1nc(Cl)cc(NCC2(CO)CC(OCc3ccccc3)C2)n1 (stereo not given) | > 100 µM |
| CC1=CC(=O)NCCN1C | > 100 µM |

These molecules were tested on HL-60(TB) leukemia (assay: DTP human tumour cell line panel, 48 h).

| Structure (SMILES) | TGI |
| --- | --- |
| Cc1cccc(N2C(=O)C(Cl)=C(Cl)C2=O)c1 | > 100 µM |
| CCC(C)(O)c1cn(-c2cccc(S(=O)(=O)O)c2)nn1 (stereo not given) | > 100 µM |
| COc1ccc(OC)c(/C=C/NC=O)c1 | > 100 µM |
| CC(=O)c1cccc2c1CC1(C2)Cc2ccc3c(c2C1=O)CCC3 (stereo not given) | 21.3 µM |
| COc1cc(Cc2cc(OC)c(OC)c(OC)c2)ccc1O | 6.55 µM |
| Nc1nc(Cl)cc(NCC2(CO)CC(OCc3ccccc3)C2)n1 (stereo not given) | > 100 µM |
| CC1=CC(=O)NCCN1C | > 100 µM |

What follows are molecules tested on UACC-62 melanoma (assay: DTP human tumour cell line panel, 48 h).

| Structure (SMILES) | TGI |
| --- | --- |
| Cc1cccc(N2C(=O)C(Cl)=C(Cl)C2=O)c1 | > 100 µM |
| CCC(C)(O)c1cn(-c2cccc(S(=O)(=O)O)c2)nn1 (stereo not given) | > 100 µM |
| COc1ccc(OC)c(/C=C/NC=O)c1 | > 100 µM |
| CC(=O)c1cccc2c1CC1(C2)Cc2ccc3c(c2C1=O)CCC3 (stereo not given) | > 100 µM |
| COc1cc(Cc2cc(OC)c(OC)c(OC)c2)ccc1O | > 100 µM |
| Nc1nc(Cl)cc(NCC2(CO)CC(OCc3ccccc3)C2)n1 (stereo not given) | > 100 µM |
| CC1=CC(=O)NCCN1C | > 100 µM |

These molecules were tested on CCRF-CEM leukemia (assay: DTP human tumour cell line panel, 48 h).

| Structure (SMILES) | TGI |
| --- | --- |
| Cc1cccc(N2C(=O)C(Cl)=C(Cl)C2=O)c1 | > 61 µM |
| CCC(C)(O)c1cn(-c2cccc(S(=O)(=O)O)c2)nn1 (stereo not given) | > 100 µM |
| COc1ccc(OC)c(/C=C/NC=O)c1 | > 100 µM |
| CC(=O)c1cccc2c1CC1(C2)Cc2ccc3c(c2C1=O)CCC3 (stereo not given) | > 100 µM |
| COc1cc(Cc2cc(OC)c(OC)c(OC)c2)ccc1O | > 100 µM |
| Nc1nc(Cl)cc(NCC2(CO)CC(OCc3ccccc3)C2)n1 (stereo not given) | > 100 µM |
| CC1=CC(=O)NCCN1C | > 100 µM |

These molecules were tested on SK-MEL-2 melanoma (assay: DTP human tumour cell line panel, 48 h).

| Structure (SMILES) | TGI |
| --- | --- |
| Cc1cccc(N2C(=O)C(Cl)=C(Cl)C2=O)c1 | > 100 µM |
| CCC(C)(O)c1cn(-c2cccc(S(=O)(=O)O)c2)nn1 (stereo not given) | > 100 µM |
| COc1ccc(OC)c(/C=C/NC=O)c1 | > 100 µM |
| CC(=O)c1cccc2c1CC1(C2)Cc2ccc3c(c2C1=O)CCC3 (stereo not given) | > 100 µM |
| COc1cc(Cc2cc(OC)c(OC)c(OC)c2)ccc1O | 64.5 µM |
| Nc1nc(Cl)cc(NCC2(CO)CC(OCc3ccccc3)C2)n1 (stereo not given) | > 100 µM |
| CC1=CC(=O)NCCN1C | > 100 µM |

The molecules below were run on DMS 273 small cell lung (assay: DTP human tumour cell line panel, 48 h).

| Structure (SMILES) | TGI |
| --- | --- |
| Cc1cccc(N2C(=O)C(Cl)=C(Cl)C2=O)c1 | > 100 µM |
| CCC(C)(O)c1cn(-c2cccc(S(=O)(=O)O)c2)nn1 (stereo not given) | > 100 µM |
| COc1ccc(OC)c(/C=C/NC=O)c1 | > 100 µM |
| CC1=CC(=O)NCCN1C | > 100 µM |

Each molecule was assayed on M19-MEL melanoma (assay: DTP human tumour cell line panel, 48 h).

| Structure (SMILES) | TGI |
| --- | --- |
| Cc1cccc(N2C(=O)C(Cl)=C(Cl)C2=O)c1 | > 100 µM |
| COc1ccc(OC)c(/C=C/NC=O)c1 | > 100 µM |
| COc1cc(Cc2cc(OC)c(OC)c(OC)c2)ccc1O | > 100 µM |
| CC1=CC(=O)NCCN1C | > 100 µM |

What follows are molecules tested on SR leukemia (assay: DTP human tumour cell line panel, 48 h).

| Structure (SMILES) | TGI |
| --- | --- |
| Cc1cccc(N2C(=O)C(Cl)=C(Cl)C2=O)c1 | 79.7 µM |
| CCC(C)(O)c1cn(-c2cccc(S(=O)(=O)O)c2)nn1 (stereo not given) | > 100 µM |
| COc1ccc(OC)c(/C=C/NC=O)c1 | > 31.6 µM |
| CC(=O)c1cccc2c1CC1(C2)Cc2ccc3c(c2C1=O)CCC3 (stereo not given) | 73.1 µM |
| COc1cc(Cc2cc(OC)c(OC)c(OC)c2)ccc1O | > 100 µM |
| Nc1nc(Cl)cc(NCC2(CO)CC(OCc3ccccc3)C2)n1 (stereo not given) | > 100 µM |
| CC1=CC(=O)NCCN1C | > 100 µM |

Each molecule was assayed on HOP-62 NSCLC (assay: DTP human tumour cell line panel, 48 h).

| Structure (SMILES) | TGI |
| --- | --- |
| Cc1cccc(N2C(=O)C(Cl)=C(Cl)C2=O)c1 | > 100 µM |
| CCC(C)(O)c1cn(-c2cccc(S(=O)(=O)O)c2)nn1 (stereo not given) | > 100 µM |
| COc1ccc(OC)c(/C=C/NC=O)c1 | > 100 µM |
| CC(=O)c1cccc2c1CC1(C2)Cc2ccc3c(c2C1=O)CCC3 (stereo not given) | > 100 µM |
| COc1cc(Cc2cc(OC)c(OC)c(OC)c2)ccc1O | > 100 µM |
| Nc1nc(Cl)cc(NCC2(CO)CC(OCc3ccccc3)C2)n1 (stereo not given) | > 100 µM |
| CC1=CC(=O)NCCN1C | > 100 µM |

These molecules were tested on NCI-H23 lung (assay: DTP human tumour cell line panel, 48 h).

| Structure (SMILES) | TGI |
| --- | --- |
| Cc1cccc(N2C(=O)C(Cl)=C(Cl)C2=O)c1 | > 100 µM |
| CCC(C)(O)c1cn(-c2cccc(S(=O)(=O)O)c2)nn1 (stereo not given) | > 100 µM |
| COc1ccc(OC)c(/C=C/NC=O)c1 | > 100 µM |
| CC(=O)c1cccc2c1CC1(C2)Cc2ccc3c(c2C1=O)CCC3 (stereo not given) | > 100 µM |
| COc1cc(Cc2cc(OC)c(OC)c(OC)c2)ccc1O | > 100 µM |
| Nc1nc(Cl)cc(NCC2(CO)CC(OCc3ccccc3)C2)n1 (stereo not given) | > 100 µM |
| CC1=CC(=O)NCCN1C | > 100 µM |

Each molecule was assayed on HT29 colon (assay: DTP human tumour cell line panel, 48 h).

| Structure (SMILES) | TGI |
| --- | --- |
| Cc1cccc(N2C(=O)C(Cl)=C(Cl)C2=O)c1 | > 100 µM |
| CCC(C)(O)c1cn(-c2cccc(S(=O)(=O)O)c2)nn1 (stereo not given) | > 100 µM |
| COc1ccc(OC)c(/C=C/NC=O)c1 | > 100 µM |
| CC(=O)c1cccc2c1CC1(C2)Cc2ccc3c(c2C1=O)CCC3 (stereo not given) | > 100 µM |
| COc1cc(Cc2cc(OC)c(OC)c(OC)c2)ccc1O | > 100 µM |
| Nc1nc(Cl)cc(NCC2(CO)CC(OCc3ccccc3)C2)n1 (stereo not given) | > 100 µM |
| CC1=CC(=O)NCCN1C | > 100 µM |

The molecules below were run on SK-MEL-5 melanoma (assay: DTP human tumour cell line panel, 48 h).

| Structure (SMILES) | TGI |
| --- | --- |
| Cc1cccc(N2C(=O)C(Cl)=C(Cl)C2=O)c1 | > 100 µM |
| CCC(C)(O)c1cn(-c2cccc(S(=O)(=O)O)c2)nn1 (stereo not given) | > 100 µM |
| COc1ccc(OC)c(/C=C/NC=O)c1 | > 100 µM |
| CC(=O)c1cccc2c1CC1(C2)Cc2ccc3c(c2C1=O)CCC3 (stereo not given) | 33.7 µM |
| COc1cc(Cc2cc(OC)c(OC)c(OC)c2)ccc1O | > 100 µM |
| Nc1nc(Cl)cc(NCC2(CO)CC(OCc3ccccc3)C2)n1 (stereo not given) | > 100 µM |
| CC1=CC(=O)NCCN1C | > 100 µM |

These molecules were tested on DLD-1 colon (assay: DTP human tumour cell line panel, 48 h).

| Structure (SMILES) | TGI |
| --- | --- |
| Cc1cccc(N2C(=O)C(Cl)=C(Cl)C2=O)c1 | > 60.7 µM |
| CCC(C)(O)c1cn(-c2cccc(S(=O)(=O)O)c2)nn1 (stereo not given) | > 100 µM |
| COc1ccc(OC)c(/C=C/NC=O)c1 | > 100 µM |
| COc1cc(Cc2cc(OC)c(OC)c(OC)c2)ccc1O | > 100 µM |
| CC1=CC(=O)NCCN1C | > 100 µM |

Each molecule was assayed on HOP-18 NSCLC (assay: DTP human tumour cell line panel, 48 h).

| Structure (SMILES) | TGI |
| --- | --- |
| Cc1cccc(N2C(=O)C(Cl)=C(Cl)C2=O)c1 | > 100 µM |
| CCC(C)(O)c1cn(-c2cccc(S(=O)(=O)O)c2)nn1 (stereo not given) | > 100 µM |
| COc1ccc(OC)c(/C=C/NC=O)c1 | > 100 µM |
| CC1=CC(=O)NCCN1C | > 100 µM |

What follows are molecules tested on SNB-19 CNS (assay: DTP human tumour cell line panel, 48 h).

| Structure (SMILES) | TGI |
| --- | --- |
| Cc1cccc(N2C(=O)C(Cl)=C(Cl)C2=O)c1 | > 100 µM |
| CCC(C)(O)c1cn(-c2cccc(S(=O)(=O)O)c2)nn1 (stereo not given) | > 100 µM |
| COc1ccc(OC)c(/C=C/NC=O)c1 | > 100 µM |
| CC(=O)c1cccc2c1CC1(C2)Cc2ccc3c(c2C1=O)CCC3 (stereo not given) | > 100 µM |
| COc1cc(Cc2cc(OC)c(OC)c(OC)c2)ccc1O | > 100 µM |
| Nc1nc(Cl)cc(NCC2(CO)CC(OCc3ccccc3)C2)n1 (stereo not given) | > 100 µM |
| CC1=CC(=O)NCCN1C | > 100 µM |

What follows are molecules tested on XF 498 CNS (assay: DTP human tumour cell line panel, 48 h).

| Structure (SMILES) | TGI |
| --- | --- |
| Cc1cccc(N2C(=O)C(Cl)=C(Cl)C2=O)c1 | > 100 µM |
| CCC(C)(O)c1cn(-c2cccc(S(=O)(=O)O)c2)nn1 (stereo not given) | > 100 µM |
| COc1ccc(OC)c(/C=C/NC=O)c1 | > 100 µM |
| COc1cc(Cc2cc(OC)c(OC)c(OC)c2)ccc1O | > 100 µM |
| CC1=CC(=O)NCCN1C | > 100 µM |
